Data: US20110020457A1, “POLYMER-SURFACTANT NANOPARTICLES FOR SUSTAINED RELEASE OF COMPOUNDS” (Wayne State University, priority 2006, published 2011)
“Also recorded” adds a separate entry of the source. Like-named read-outs stand apart in the source and are kept apart here. Blank lines part the entries; values can stand above or below the compound they belong to.

What was measured:
[1] = also after multiple dosing; cited from earlier work
[2] = cited from earlier work
[3] = pH 7.4
Procedure: In vitro release studies: In vitro release of nanoparticle-encapsulated drug was determined under sink conditions. The term “sink conditions” refers to release conditions in which the volume of the buffer used is sufficient to dissolve all of the drug present in the delivery system. Such conditions are used to assure that the amount of drug released is not limited by the degree of solubility in the buffer or solvent used. Nanoparticles (˜5 mg) were dispersed in 0.5 ml of phosphate-buffered saline (PBS, pH 7.4, 0.15M) and suspended in DispoDialyzer® (10 kDa MWCO, Pierce) dialysis tubes. These were then placed in a 15-ml centrifuge tube containing 10 ml of PBS. The whole assembly was shaken at 100 rpm and 37.0±0.5° C. in an orbital shaker (Brunswick Scientific, C24 incubator shaker, NJ). […] Drug concentration in the release samples was determined as in drug loading determinations. Stability of different drugs under in vitro release conditions was determined and the drug release profile was corrected for degradation, if any.
Initially, the stability of these drugs under the release conditions (PBS, pH 7.4 and 37° C.) were investigated.

[4] = tested on: NCI-ADR/RES cells; assay: Cytotoxicity in drug-resistant cells, MTS assay (Example 5); format: cell-based
Procedure: (§1) For cytotoxicity studies, NCI-ADR/RES or MCF-7 cells were seeded in 96-well plates at a seeding density of 5000-10000 cells per well per 0.1 mL of medium and allowed to attach overnight. […] Untreated cells and empty nanoparticles were used as controls. […] Cytotoxicity was determined over a period of 10 days using a commercially available MTS assay (Promega). Results were analyzed by using an ANOVA. Differences were considered significant at P<0.05.

[5] = tested on: NCI-ADR/RES cells; assay: Intracellular distribution of doxorubicin by fluorescence microscopy; format: cell-based; details: 2.5 μg/mL doxorubicin, 2 h
Procedure: At the end of the treatment period, cells were washed three times with cold PBS and then lysed using 100 μL of cell culture lysis reagent (CCLR; Promega). The protein content of the cell lysates was determined using the Pierce (Rockford, Ill.) BCA protein assay. Cell lysates were then mixed with 300 μL of methanol and incubated at 37° C. for 6 h at 100 rpm. Samples were centrifuged at 14 000 rpm for 10 min at 4° C. The concentration of rhodamine in the methanolic extract was determined by HPLC as described before. Data were expressed as rhodamine accumulation normalized to total cell protein. For fluorescence microscopy, the uptake and intracellular distribution of doxorubicin in NCI-ADR/RES cells were determined qualitatively using fluorescence microscopy. Cells ([…]) were seeded on coverslips placed in 35 mm dishes.
At 2 h post-treatment, cells were rinsed with drug-free medium and incubated with 75 nM Lysotracker Green (Invitrogen) for 30 min. Cells were then washed and counterstained with DAPI (4′,6-diamidino-2-phenylindole, Invitrogen). Images were captured with a BX60 Olympus fluorescence microscope. Images captured using red, blue, and green filters were overlaid to determine localization and association of doxorubicin-associated red fluorescence in the nucleus and endolysosomes, respectively.

[6] = tested on: MCF-7 cells; assay: Cytotoxicity in drug-sensitive cells, MTS assay (Example 5); format: cell-based, Human; details: doxorubicin in solution
Procedure: as §1

[7] = tested on: JC tumors (doxorubicin-resistant mammary adenocarcinoma); assay: Tumor growth after combination PDT and chemotherapy in drug-resistant tumor; format: in vivo, female Balb/c mice; details: single i.v. dose, 4 mg/kg doxorubicin
Source text: FIG. 16. Nanoparticle-mediated combination PDT and chemotherapy overcame tumor drug resistance in vivo. […] About twenty four hours after treatment administration, tumors were exposed to light of 665 nm wavelength (50 J/cm^2). Animals were then monitored for tumor growth. The results are shown as percent increase in tumor volume as a function of time after treatment (days), with the various treatment protocols.
Nanoparticle-mediated combination PDT-chemotherapy inhibited drug-resistant tumor growth. The in vivo efficacy of nanoparticle-mediated combination chemo- and photodynamic therapy was studied in a mouse model of drug-resistant tumor. Drug-resistant JC tumors (doxorubicin-resistant mammary adenocarcinoma) grown subcutaneously in female Balb/c mice were used in these experiments. Mice were administered a single i.v. dose of the different treatments. […] About 24 hrs after treatment administration, tumors were exposed to light of 665 nm wavelength (50 J/cm^2). Animals were then monitored for tumor growth.

[8] = tested on: ROS; assay: Nanoparticle-mediated ROS generation ex vitro (APF fluorescence); details: photo-activated
Source text: PBS and empty nanoparticles were used as negative controls. To determine the effect of dose of light on the amount of ROS generated, above samples were photo-activated with 10 consecutive doses of light (1200 mJ/cm^2 per dose) measuring fluorescence after each illumination. […] Experiments performed as above but without light irradiation were used as light negative controls.

[9] = tested on: MCF-7 cells; assay: Cytotoxicity of methylene blue PDT; details: 0.3 or 0.6 μM, no light

Structure (SMILES): CCCCC(CC)COC(=O)CC(C(=O)OCC(CC)CCCC)S(=O)(=O)[O-].[Na+] (stereo not drawn) [AOT, dioctylsodium sulfosuccinate]
Elimination and accumulation in the body [1]: easily removed from the body through renal elimination, and does not accumulate
pKa ([2]; sulfonic group): < 1

Stability under the release conditions [3]: stable
Structure (SMILES): Clc1cccc(Cl)c1N=C1NCCN1 [Clonidine]

Stability under the release conditions [3]: stable
Structure (SMILES): O=C(O)Cc1ccccc1Nc1c(Cl)cccc1Cl [Diclofenac, diclofenac sodium]

Structure (SMILES): COc1cccc2c1C(=O)c1c(O)c3c(c(O)c1C2=O)C[C@@](O)(C(=O)CO)C[C@@H]3O[C@H]1C[C@H](N)[C@H](O)[C@H](C)O1 [Doxorubicin]
Concentration required to induce cytotoxicity ([4]; doxorubicin in solution, drug-resistant cells): > 50 µg/mL
Stability under the release conditions [3]: biphasic, first-order degradation profile
Doxorubicin in nuclei of cells [5]: No or insignificant doxorubicin fluorescence
Intracellular distribution of doxorubicin ([5]; listed as Free doxorubicin): diffuse distribution within the cells, with a significant fraction appearing in vesicles located near the cell membrane; also recorded: present near the cell surface
Cytotoxicity in drug-sensitive cells [6]: dose-dependent cytotoxicity
Therapeutic effect on tumor growth [7]: did not show a significant therapeutic effect
pKa [2]: ~8.2
Ionized fraction ([2]; pH 7.4): about 86%

Structure (SMILES): COc1ccc(CCN(C)CCCC(C#N)(c2ccc(OC)c(OC)c2)C(C)C)cc1OC (stereo not drawn) [Verapamil]
Effect on resistance to doxorubicin ([4]; verapamil 23.0 μg/mL with doxorubicin 0.4 μg/mL in solution): reversed the resistance to doxorubicin

Structure (SMILES): CN(C)c1ccc2nc3ccc(=[N+](C)C)cc-3sc2c1 [methylene blue, Methylene blue]
Increase in fluorescence at 0.6 μM compared to 0.3 μM [8]: 2 fold
Cytotoxic effect without light-activation [9]: no significant effect
